Like-named read-outs stand apart in the source and are kept apart here.
Assays:
Assay type in all cases: cell-based
[1] = target: Met (phospho-Met, HGF-stimulated PC-3 prostate cancer cells) (Homo sapiens (Human), UniProt P08581); assay: Met autophosphorylation ELISA in PC-3 cells (Example F); settings: cellular activity, read-out: c-Met IC50
Procedure, shortened: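 PC-3 cells, serum-starved 3 h, were treated with compounds (8-point dose curve, 0.3% DMSO final) for 1 h, then stimulated with 100 ng/mL recombinant human HGF for 10 min. Lysate phospho-Met (panTyr) was quantified by sandwich ELISA; IC50 from 4-parameter logistic fit.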

[2] = target: AXL (phospho-AXL, Gas6-stimulated A-172 glioblastoma cells) (Homo sapiens (Human), UniProt P30530); assay: AXL autophosphorylation ELISA in A-172 cells (Example E)
Procedure, shortened: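 Phospho-AXL in lysates was quantified by ELISA, normalised to DMSO (100%) and reference inhibitor (0%) controls. IC50 by 4-parameter logistic fit.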

[3] = target: KDR (phospho-KDR, VEGF165-stimulated HUVEC cells) (Homo sapiens (Human), UniProt P35968); assay: KDR autophosphorylation ELISA in HUVEC cells (Example G); settings: cellular activity
Procedure, shortened: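 HUVEC cells, serum-starved 24 h, were treated 1 h with an 8-point compound dilution (0.3% DMSO) and then stimulated with 100 ng/mL VEGF165 for 5 min. Phospho-KDR in lysates was quantified by sandwich ELISA against a phospho-KDR standard. IC50 from a 4-parameter logistic fit, normalised between stimulated DMSO and unstimulated controls.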

[4] = target: Mer (phospho-Mer, MERTK-transfected 293A cells) (Homo sapiens (Human), UniProt Q12866); assay: Mer autophosphorylation ELISA in transient transfected 293A cells (Example H); settings: cellular activity
Procedure, shortened: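 293A cells transiently transfected with human MERTK were treated 1 h in serum-free medium with an 8-point compound dilution (0.3% DMSO final). Lysates were assayed by phospho-Mer sandwich ELISA against a phospho-Mer standard; IC50 came from a 4-parameter logistic fit, normalised to DMSO (100%) and reference-inhibitor (0%) controls.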

[5] = Met autophosphorylation ELISA in PC-3 cells
[6] = cellular activity, AXL autophosphorylation ELISA in A-172 cells, read-out: Axl IC50
[7] = KDR autophosphorylation ELISA in HUVEC cells
[8] = Mer autophosphorylation ELISA in transient transfected 293A cells
[9] = cellular activity, A-172 cells, read-out: Axl IC50

Sequence of KDR (phospho-KDR, VEGF165-stimulated HUVEC cells) (P35968 20-1356): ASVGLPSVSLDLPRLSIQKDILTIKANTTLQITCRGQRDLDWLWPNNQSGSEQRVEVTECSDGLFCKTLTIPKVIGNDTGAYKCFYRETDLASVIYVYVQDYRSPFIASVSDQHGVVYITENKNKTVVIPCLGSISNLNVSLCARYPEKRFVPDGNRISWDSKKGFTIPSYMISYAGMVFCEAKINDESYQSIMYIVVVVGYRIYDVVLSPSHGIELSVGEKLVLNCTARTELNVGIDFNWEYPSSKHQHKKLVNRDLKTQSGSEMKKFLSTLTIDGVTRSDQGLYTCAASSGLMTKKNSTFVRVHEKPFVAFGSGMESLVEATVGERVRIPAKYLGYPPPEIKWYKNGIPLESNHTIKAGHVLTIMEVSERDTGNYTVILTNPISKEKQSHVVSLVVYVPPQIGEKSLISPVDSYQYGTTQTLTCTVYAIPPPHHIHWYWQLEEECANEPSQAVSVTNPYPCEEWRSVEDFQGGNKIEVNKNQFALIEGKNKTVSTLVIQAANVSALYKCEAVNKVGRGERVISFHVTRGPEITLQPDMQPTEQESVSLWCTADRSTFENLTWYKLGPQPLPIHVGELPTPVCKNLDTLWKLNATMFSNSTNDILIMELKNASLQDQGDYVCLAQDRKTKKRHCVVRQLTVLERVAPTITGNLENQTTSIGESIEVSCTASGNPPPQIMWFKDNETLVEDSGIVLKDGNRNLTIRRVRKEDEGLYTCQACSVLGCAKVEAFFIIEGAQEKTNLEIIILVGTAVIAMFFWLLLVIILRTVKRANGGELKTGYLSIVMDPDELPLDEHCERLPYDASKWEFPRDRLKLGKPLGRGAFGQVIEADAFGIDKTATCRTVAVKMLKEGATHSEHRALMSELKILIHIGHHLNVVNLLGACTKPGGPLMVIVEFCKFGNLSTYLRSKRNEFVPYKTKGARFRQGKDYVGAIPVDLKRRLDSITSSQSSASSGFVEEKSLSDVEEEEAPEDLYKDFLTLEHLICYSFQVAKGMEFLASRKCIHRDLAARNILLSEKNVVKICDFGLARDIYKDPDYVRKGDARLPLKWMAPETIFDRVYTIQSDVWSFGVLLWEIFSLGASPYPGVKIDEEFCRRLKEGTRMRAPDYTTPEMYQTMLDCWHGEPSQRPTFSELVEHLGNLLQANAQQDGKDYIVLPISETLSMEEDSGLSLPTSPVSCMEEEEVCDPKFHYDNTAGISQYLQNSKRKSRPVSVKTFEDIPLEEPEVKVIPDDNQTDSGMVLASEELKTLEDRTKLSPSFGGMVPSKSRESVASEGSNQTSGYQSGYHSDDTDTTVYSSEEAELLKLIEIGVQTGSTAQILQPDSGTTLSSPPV
Sequence of Mer (phospho-Mer, MERTK-transfected 293A cells) (Q12866 21-999): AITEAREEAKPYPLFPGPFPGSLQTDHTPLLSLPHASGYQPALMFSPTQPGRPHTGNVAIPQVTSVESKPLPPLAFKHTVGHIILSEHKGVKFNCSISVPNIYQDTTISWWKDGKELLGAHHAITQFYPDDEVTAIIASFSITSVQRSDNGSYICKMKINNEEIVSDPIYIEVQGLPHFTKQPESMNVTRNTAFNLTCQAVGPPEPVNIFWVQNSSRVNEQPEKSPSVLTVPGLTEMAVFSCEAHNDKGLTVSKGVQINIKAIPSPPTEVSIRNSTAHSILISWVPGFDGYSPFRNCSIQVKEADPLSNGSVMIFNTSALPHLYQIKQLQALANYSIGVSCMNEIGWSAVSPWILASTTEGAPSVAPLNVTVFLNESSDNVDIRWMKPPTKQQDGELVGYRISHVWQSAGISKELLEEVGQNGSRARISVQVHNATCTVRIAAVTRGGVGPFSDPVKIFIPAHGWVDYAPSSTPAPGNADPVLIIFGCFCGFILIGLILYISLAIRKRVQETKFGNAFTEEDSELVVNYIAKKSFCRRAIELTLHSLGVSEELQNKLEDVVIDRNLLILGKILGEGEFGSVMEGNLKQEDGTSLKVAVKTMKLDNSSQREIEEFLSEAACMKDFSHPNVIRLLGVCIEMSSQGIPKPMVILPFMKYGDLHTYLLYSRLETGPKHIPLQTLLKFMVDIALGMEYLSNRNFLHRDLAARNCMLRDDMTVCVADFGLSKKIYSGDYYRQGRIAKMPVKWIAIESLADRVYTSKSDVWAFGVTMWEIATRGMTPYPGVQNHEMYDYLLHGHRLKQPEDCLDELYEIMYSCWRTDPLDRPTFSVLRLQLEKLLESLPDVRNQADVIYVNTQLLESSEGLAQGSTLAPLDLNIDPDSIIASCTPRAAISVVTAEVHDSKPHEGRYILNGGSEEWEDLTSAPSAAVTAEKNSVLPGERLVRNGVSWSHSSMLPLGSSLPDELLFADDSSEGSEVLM
Sequence of Met (phospho-Met, HGF-stimulated PC-3 prostate cancer cells) (P08581 25-1390): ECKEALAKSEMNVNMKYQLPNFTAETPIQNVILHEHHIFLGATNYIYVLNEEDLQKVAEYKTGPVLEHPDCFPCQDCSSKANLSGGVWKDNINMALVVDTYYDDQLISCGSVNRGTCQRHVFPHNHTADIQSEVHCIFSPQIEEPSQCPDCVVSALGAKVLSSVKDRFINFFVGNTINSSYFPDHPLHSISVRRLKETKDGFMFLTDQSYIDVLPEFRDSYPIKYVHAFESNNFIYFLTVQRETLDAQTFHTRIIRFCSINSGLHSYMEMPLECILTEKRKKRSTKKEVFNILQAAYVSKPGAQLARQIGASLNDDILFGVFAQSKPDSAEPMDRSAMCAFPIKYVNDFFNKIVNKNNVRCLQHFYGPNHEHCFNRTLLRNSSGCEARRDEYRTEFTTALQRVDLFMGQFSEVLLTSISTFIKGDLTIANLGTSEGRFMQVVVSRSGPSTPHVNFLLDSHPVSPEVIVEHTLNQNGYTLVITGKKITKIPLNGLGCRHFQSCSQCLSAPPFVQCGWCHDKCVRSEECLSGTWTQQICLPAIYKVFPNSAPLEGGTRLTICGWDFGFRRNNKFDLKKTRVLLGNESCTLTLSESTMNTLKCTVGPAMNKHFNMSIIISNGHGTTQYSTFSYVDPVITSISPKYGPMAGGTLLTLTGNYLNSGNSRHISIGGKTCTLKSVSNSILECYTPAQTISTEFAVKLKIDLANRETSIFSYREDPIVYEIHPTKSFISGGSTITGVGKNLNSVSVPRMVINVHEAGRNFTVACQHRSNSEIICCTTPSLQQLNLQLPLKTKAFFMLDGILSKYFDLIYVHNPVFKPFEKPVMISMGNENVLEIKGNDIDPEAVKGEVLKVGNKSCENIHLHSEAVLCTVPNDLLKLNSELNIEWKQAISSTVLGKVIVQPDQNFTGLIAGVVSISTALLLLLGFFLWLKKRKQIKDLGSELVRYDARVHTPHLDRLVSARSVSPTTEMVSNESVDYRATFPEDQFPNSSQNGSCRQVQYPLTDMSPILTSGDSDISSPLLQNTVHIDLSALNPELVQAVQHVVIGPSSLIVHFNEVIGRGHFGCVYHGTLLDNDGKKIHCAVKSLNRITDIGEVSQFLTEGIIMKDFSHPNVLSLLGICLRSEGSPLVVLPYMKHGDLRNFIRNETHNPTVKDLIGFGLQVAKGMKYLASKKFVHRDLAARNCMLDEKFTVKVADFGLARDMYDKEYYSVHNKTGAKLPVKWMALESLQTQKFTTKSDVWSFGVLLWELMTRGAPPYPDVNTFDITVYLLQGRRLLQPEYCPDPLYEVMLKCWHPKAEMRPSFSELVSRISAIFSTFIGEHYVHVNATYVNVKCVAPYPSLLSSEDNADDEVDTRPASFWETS
Sequence of AXL (phospho-AXL, Gas6-stimulated A-172 glioblastoma cells) (P30530 26-894): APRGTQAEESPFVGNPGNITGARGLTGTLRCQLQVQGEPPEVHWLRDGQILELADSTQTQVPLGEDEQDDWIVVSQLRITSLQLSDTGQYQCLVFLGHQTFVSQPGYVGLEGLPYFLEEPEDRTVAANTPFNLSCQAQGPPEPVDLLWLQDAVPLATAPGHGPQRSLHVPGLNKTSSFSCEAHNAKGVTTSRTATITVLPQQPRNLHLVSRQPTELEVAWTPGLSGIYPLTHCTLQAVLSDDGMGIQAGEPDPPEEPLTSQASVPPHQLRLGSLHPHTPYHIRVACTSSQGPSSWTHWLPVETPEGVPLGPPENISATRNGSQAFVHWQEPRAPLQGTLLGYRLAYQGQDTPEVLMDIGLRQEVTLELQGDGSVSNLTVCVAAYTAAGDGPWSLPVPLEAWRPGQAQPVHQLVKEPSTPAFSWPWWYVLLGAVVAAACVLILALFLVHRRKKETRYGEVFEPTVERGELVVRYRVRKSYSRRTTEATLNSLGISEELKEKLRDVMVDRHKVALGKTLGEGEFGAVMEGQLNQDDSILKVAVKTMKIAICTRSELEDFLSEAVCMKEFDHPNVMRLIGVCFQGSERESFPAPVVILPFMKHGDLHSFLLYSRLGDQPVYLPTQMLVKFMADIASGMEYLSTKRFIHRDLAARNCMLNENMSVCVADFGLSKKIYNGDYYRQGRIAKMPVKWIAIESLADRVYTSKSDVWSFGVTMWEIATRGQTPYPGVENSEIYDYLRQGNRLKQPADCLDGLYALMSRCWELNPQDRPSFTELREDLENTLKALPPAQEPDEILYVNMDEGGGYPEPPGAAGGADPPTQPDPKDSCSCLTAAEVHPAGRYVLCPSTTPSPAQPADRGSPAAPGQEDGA

Row | SMILES | IC50 [1, 5] [nM] | IC50 [2, 6] [nM] | IC50 [3, 7] [nM] | IC50 [4, 8] [nM] | IC50 [2] [nM] | IC50 ([1]; PC-3 cells) [nM] | IC50 [2, 9] [nM] | IC50 ([3]; HUVEC cells) [nM] | IC50 ([4]; transfected 293A cells) [nM]
1 | COCc1nc(C)c(-c2ccc(F)cc2)c(O)c1C(=O)Nc1ccc(Oc2ccnc3cnc(OC)cc23)c(F)c1 [Compound 501, N-[3-Fluoro-4-[(6-methoxy-1,7-naphthyridin-4-yl)oxy]phenyl]-5-(4-fluorophenyl)-4-hydroxy-2-(methoxymethyl)-6-methylpyridine-3-carboxamide] | < 100 | < 100 | < 100 | < 100 | – | – | – | – | –
2 | C=Cc1c(C)c(C(=O)Nc2ccc(Oc3ccnc4cc(OCCOC)cnc34)c(F)c2)c(=O)n(-c2ccc(F)cc2)c1C [Compound 742, 5-ethenyl-N-[3-fluoro-4-[[7-(2-methoxyethoxy)-1,5-naphthyridin-4-yl]oxy]phenyl]-1-(4-fluorophenyl)-4,6-dimethyl-2-oxopyridine-3-carboxamide] | < 100 | < 100 | > 300 | < 100 | – | – | – | – | –
3 | COc1cnc2c(Oc3ccc(NC(=O)c4cn(C)c(C5CC5)c(-c5ccc(F)cc5)c4=O)cc3F)ccnc2c1 [Compound 685, 6-cyclopropyl-N-[3-fluoro-4-[(7-methoxy-1,5-naphthyridin-4-yl)oxy]phenyl]-5-(4-fluorophenyl)-1-methyl-4-oxopyridine-3-carboxamide] | < 100 | < 100 | > 300 | < 100 | – | – | – | – | –
4 | COc1nc2c(Oc3ccc(NC(=O)c4n[nH]c(C)c(-c5ccc(F)cc5)c4=O)cc3F)ccnc2cc1C [Compound 472, N-[3-fluoro-4-[(6-methoxy-7-methyl-1,5-naphthyridin-4-yl)oxy]phenyl]-5-(4-fluorophenyl)-6-methyl-4-oxo-1H-pyridazine-3-carboxamide] | < 100 | < 100 | < 100 | < 100 | – | – | – | – | –
5 | COc1cc2nccc(Oc3ccc(NC(=O)c4nnc(C)c(-c5ccc(F)cc5C)c4OC)cc3F)c2nc1OC [Compound 489, N-[4-[(6,7-dimethoxy-1,5-naphthyridin-4-yl)oxy]-3-fluorophenyl]-5-(4-fluoro-2-methylphenyl)-4-methoxy-6-methylpyridazine-3-carboxamide] | < 100 | < 100 | < 100 | < 100 | – | – | – | – | –
6 | COc1cc2nccc(Oc3ccc(NC(=O)c4cnc(C5CC5)c(-c5ccc(F)cc5)c4O)cc3F)c2nc1OC [Compound 662, 6-cyclopropyl-N-[4-[(6,7-dimethoxy-1,5-naphthyridin-4-yl)oxy]-3-fluorophenyl]-5-(4-fluorophenyl)-4-hydroxypyridine-3-carboxamide] | < 100 | < 100 | 100 to 300 | < 100 | – | – | – | – | –
7 | C=C(C)c1cnc2c(Oc3ccc(NC(=O)c4nnc(C)c(-c5ccc(F)cc5)c4OCC)cc3F)ccnc2c1 [Compound 476, 4-ethoxy-5-(4-fluorophenyl)-N-[3-fluoro-4-[(7-prop-1-en-2-yl-1,5-naphthyridin-4-yl)oxy]phenyl]-6-methylpyridazine-3-carboxamide] | < 100 | < 100 | < 100 | < 100 | – | – | – | – | –
8 | COc1cnc2c(Oc3ccc(NC(=O)c4c(C)c(C)c(C)n(-c5ccc(F)cc5)c4=O)cc3)ccnc2c1 [Compound 317, 1-(4-Fluorophenyl)-N-[4-[(7-methoxy-1,5-naphthyridin-4-yl)oxy]phenyl]-4,5,6-trimethyl-2-oxopyridine-3-carboxamide] | < 100 | < 100 | < 100 | < 100 | – | – | – | – | –
9 | C=Cc1c(C)c(C(=O)Nc2ccc(Oc3ccnc4cc(OCCOC)c(OC)nc34)cc2)c(=O)n(-c2ccc(F)cc2)c1C [Compound 741, 5-ethenyl-1-(4-fluorophenyl)-N-[4-[[6-methoxy-7-(2-methoxyethoxy)-1,5-naphthyridin-4-yl]oxy]phenyl]-4,6-dimethyl-2-oxopyridine-3-carboxamide] | < 100 | < 100 | 100 to 300 | < 100 | – | – | – | – | –
10 | COc1cc(NC(=O)c2cn(C)c(C)c(-c3ccc(F)cc3)c2=O)c(F)cc1Oc1ccnc2cc(OC)c(OC)nc12 [Compound 745, N-[4-[(6,7-dimethoxy-1,5-naphthyridin-4-yl)oxy]-2-fluoro-5-methoxyphenyl]-5-(4-fluorophenyl)-1,6-dimethyl-4-oxopyridine-3-carboxamide] | < 100 | < 100 | > 300 | < 100 | – | – | – | – | –
11 | COc1cc2nccc(Oc3ccc(NC(=O)c4c(C)ccn(-c5ccc(F)cc5C)c4=O)cc3)c2nc1OC [Compound 332, N-[4-[(6,7-dimethoxy-1,5-naphthyridin-4-yl)oxy]phenyl]-1-(4-fluoro-2-methylphenyl)-4-methyl-2-oxopyridine-3-carboxamide] | < 100 | < 100 | < 100 | < 100 | – | – | – | – | –
12 | CCn1nc(C(=O)Nc2ccc(Oc3ccnc4cc(OC)c(OC)cc34)c(F)c2)c(=O)c(-c2ccc(F)cc2)c1C [Compound 573, N-[4-(6,7-Dimethoxyquinolin-4-yl)oxy-3-fluorophenyl]-1-ethyl-5-(4-fluorophenyl)-6-methyl-4-oxopyridazine-3-carboxamide] | < 100 | < 100 | < 100 | < 100 | – | – | – | – | –
13 | COc1cc2nccc(Oc3ccc(NC(=O)c4cn5cc(C)oc5c(-c5ccc(F)cc5)c4=O)cc3F)c2nc1OC [Compound 491, N-[4-[(6,7-dimethoxy-1,5-naphthyridin-4-yl)oxy]-3-fluorophenyl]-8-(4-fluorophenyl)-2-methyl-7-oxo-[1,3]oxazolo[3,2-a]pyridine-6-carboxamide] | < 100 | < 100 | > 300 | < 100 | – | – | – | – | –

More lines, now with the values ahead:

Row | IC50 [1, 5] [nM] | IC50 [2, 6] [nM] | IC50 [3, 7] [nM] | IC50 [4, 8] [nM] | IC50 [2] [nM] | IC50 ([1]; PC-3 cells) [nM] | IC50 [2, 9] [nM] | IC50 ([3]; HUVEC cells) [nM] | IC50 ([4]; transfected 293A cells) [nM] | SMILES
14 | < 100 | < 100 | 100 to 300 | < 100 | – | – | – | – | – | COc1cc2nccc(Oc3cc(F)c(NC(=O)c4c(C)n(C)c(C)c(-c5ccc(F)cc5C)c4=O)cc3F)c2nc1OC [Compound 772, N-[4-[(6,7-dimethoxy-1,5-naphthyridin-4-yl)oxy]-2,5-difluorophenyl]-5-(4-fluoro-2-methylphenyl)-1,2,6-trimethyl-4-oxopyridine-3-carboxamide]
15 | < 100 | – | 100 to 300 | < 100 | < 100 | – | – | – | – | COc1cc2nccc(Oc3ccc(NC(=O)c4c(C)n(C)nc(-c5ccc(F)cc5C)c4=O)cc3F)c2nc1OC [Compound 750, N-[4-[(6,7-dimethoxy-1,5-naphthyridin-4-yl)oxy]-3-fluorophenyl]-6-(4-fluoro-2-methylphenyl)-2,3-dimethyl-5-oxopyridazine-4-carboxamide]
16 | < 100 | < 100 | < 100 | < 100 | – | – | – | – | – | COc1cnc2c(Oc3ccc(NC(=O)c4c(C)ncc(-c5ccc(F)cc5OC)c4O)cc3F)ccnc2c1 [Compound 793, N-[3-fluoro-4-[(7-methoxy-1,5-naphthyridin-4-yl)oxy]phenyl]-5-(4-fluoro-2-methoxyphenyl)-4-hydroxy-2-methylpyridine-3-carboxamide]
17 | < 100 | < 100 | > 300 | < 100 | – | – | – | – | – | COCCOc1cnc2c(Oc3ccc(NC(=O)c4cc(C(C)=O)c(C)n(-c5ccc(F)cc5)c4=O)cc3F)ccnc2c1 [Compound 758, 5-acetyl-N-[3-fluoro-4-[[7-(2-methoxyethoxy)-1,5-naphthyridin-4-yl]oxy]phenyl]-1-(4-fluorophenyl)-6-methyl-2-oxopyridine-3-carboxamide]
18 | – | – | – | – | – | < 100 | < 100 | < 100 | < 100 | COc1cc(F)ccc1-c1cn(CC(F)F)c(C)c(C(=O)Nc2ccc(Oc3ccnc4cc(OC)c(OC)nc34)c(F)c2)c1=O [Compound 810, 1-(2,2-difluoroethyl)-N-[4-[(6,7-dimethoxy-1,5-naphthyridin-4-yl)oxy]-3-fluorophenyl]-5-(4-fluoro-2-methoxyphenyl)-2-methyl-4-oxopyridine-3-carboxamide]
19 | – | – | – | – | – | < 100 | < 100 | > 300 | < 100 | COc1cc2nccc(Oc3ccc(NC(=O)c4c5n(cc(-c6ccc(F)cc6)c4=O)CCOC5)cc3F)c2nc1OC [Compound 808, N-[4-[(6,7-dimethoxy-1,5-naphthyridin-4-yl)oxy]-3-fluorophenyl]-7-(4-fluorophenyl)-8-oxo-3,4-dihydro-1H-pyrido[2,1-c][1,4]oxazine-9-carboxamide]
20 | < 100 | < 100 | < 100 | < 100 | – | – | – | – | – | CNC(=O)c1cc2nccc(Oc3cc(F)c(NC(=O)c4c(C)nc(C)c(-c5ccc(F)cc5C)c4O)cc3F)c2cc1C [Compound 752, 4-[2,5-difluoro-4-[[5-(4-fluoro-2-methylphenyl)-4-hydroxy-2,6-dimethylpyridine-3-carbonyl]amino]phenoxy]-N,6-dimethylquinoline-7-carboxamide]
